AC50 data for 26 molecules are collected here from patent US20230365592A1 (Agios Pharmaceuticals, Inc., priority 2022, published 2023).

SMILES strings stand for the structures. Where only a bound is given, the exact number is not on record here.

This experiment addresses T1, human PAH with the R408W mutation (Homo sapiens, UniProt P00439, R408W).
T1 construct: expressed in transfected cells
T1 sequence (P00439 1-452 R408W): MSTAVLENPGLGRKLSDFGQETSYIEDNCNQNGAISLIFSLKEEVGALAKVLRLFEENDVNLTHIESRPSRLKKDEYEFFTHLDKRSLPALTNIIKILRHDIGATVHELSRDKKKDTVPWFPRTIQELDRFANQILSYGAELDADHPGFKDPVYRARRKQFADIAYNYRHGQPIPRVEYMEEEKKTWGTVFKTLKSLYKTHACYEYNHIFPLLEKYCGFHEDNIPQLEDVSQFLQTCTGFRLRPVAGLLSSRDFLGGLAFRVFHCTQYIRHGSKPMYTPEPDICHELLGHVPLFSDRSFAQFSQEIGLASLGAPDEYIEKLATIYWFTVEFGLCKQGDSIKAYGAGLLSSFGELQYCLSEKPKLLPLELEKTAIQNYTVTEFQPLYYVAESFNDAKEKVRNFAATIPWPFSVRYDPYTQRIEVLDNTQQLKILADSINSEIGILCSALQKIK
The experiment in a line: Cell Based Phenylalanine Flux Assay.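 Further: after compound treatment, cells received sepiapterin plus isotope-labelled Phenylalanine for 4 hours, then labelled Tyrosine in the medium was quantified, 10-point 2-fold dilution series run in duplicate.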 Particulars: A375 cells expressing human PAH R408W; 24 hrs compound incubation; 13C-Tyrosine by LC-MS; average where tested multiple times; read-out: AC50.

For `Fc1cccn2nc([C@@H]3c4nc[nH]c4CCN3c3ccccn3)cc12` [Example 1977, (S)-4-(4-fluoropyrazolo[1,5-a]pyridin-2-yl)-5-(pyridin-2-yl)-4,5,6,7-tetrahydro-1H-imidazo[4,5-c]pyridine], the AC50 is 0.5 to 1 µM.
`FC(F)c1cccn2nc([C@H]3c4nc[nH]c4CCN3c3ccccn3)cc12` [Example 1978, (R)-4-(4-(difluoromethyl)pyrazolo[1,5-a]pyridin-2-yl)-5-(pyridin-2-yl)-4,5,6,7-tetrahydro-1H-imidazo[4,5-c]pyridine]: the AC50 was above 5 µM.
To `FC(F)c1cccn2nc([C@@H]3c4nc[nH]c4CCN3c3ccccn3)cc12` [Example 1979, (S)-4-(4-(difluoromethyl)pyrazolo[1,5-a]pyridin-2-yl)-5-(pyridin-2-yl)-4,5,6,7-tetrahydro-1H-imidazo[4,5-c]pyridine] belongs below 0.5 µM; to `CC(C)c1cccn2nc([C@@H]3c4nc[nH]c4CCN3C(=O)c3nnc(-c4ncccn4)o3)cc12` [Example 1981, (S)-(4-(4-isopropylpyrazolo[1,5-a]pyridin-2-yl)-1,4,6,7-tetrahydro-5H-imidazo[4,5-c]pyridin-5-yl)(5-(pyrimidin-2-yl)-1,3,4-oxadiazol-2-yl)methanone], 0.5 to 1 µM.
Take `CC(C)c1cccn2nc([C@@H]3c4nc[nH]c4CCN3C(=O)c3nnc(-c4ccn(C(F)(F)F)n4)o3)cc12` [Example 1984, (S)-(4-(4-isopropylpyrazolo[1,5-a]pyridin-2-yl)-1,4,6,7-tetrahydro-5H-imidazo[4,5-c]pyridin-5-yl)(5-(1-(trifluoromethyl)-1H-pyrazol-3-yl)-1,3,4-oxadiazol-2-yl)methanone]: the AC50 was below 0.5 µM.
As to `CC(C)c1cccn2nc([C@H]3c4nc[nH]c4CCN3C(=O)c3nnc(-c4ccn(C(F)(F)F)n4)o3)cc12` [Example 1985, (R)-(4-(4-isopropylpyrazolo[1,5-a]pyridin-2-yl)-1,4,6,7-tetrahydro-5H-imidazo[4,5-c]pyridin-5-yl)(5-(1-(trifluoromethyl)-1H-pyrazol-3-yl)-1,3,4-oxadiazol-2-yl)methanone], the AC50 is above 5 µM.
Turning to `O=C(c1ocnc1C1CC1)N1CCc2[nH]cnc2[C@H]1c1cc2c(F)cccn2n1` [Example 1986, (S)-(4-cyclopropyloxazol-5-yl)(4-(4-fluoropyrazolo[1,5-a]pyridin-2-yl)-1,4,6,7-tetrahydro-5H-imidazo[4,5-c]pyridin-5-yl)methanone], the AC50 was below 0.5 µM.
On to `O=C(c1ocnc1C1CC1)N1CCc2[nH]cnc2[C@@H]1c1cc2c(F)cccn2n1` [Example 1987, (R)-(4-cyclopropyloxazol-5-yl)(4-(4-fluoropyrazolo[1,5-a]pyridin-2-yl)-1,4,6,7-tetrahydro-5H-imidazo[4,5-c]pyridin-5-yl)methanone], for which the AC50 was in the range of 1 to 5 µM.
For `Cc1cccn2nc([C@@H]3c4nc[nH]c4CCN3C(=O)c3ncco3)cc12` [Example 1989, (S)-(4-(4-methylpyrazolo[1,5-a]pyridin-2-yl)-1,4,6,7-tetrahydro-5H-imidazo[4,5-c]pyridin-5-yl)(oxazol-2-yl)methanone], the AC50 was 0.5 to 1 µM.
As for `O=C(c1nnc(C2CC2)s1)N1CCc2[nH]cnc2[C@H]1c1cc2ccccn2n1` [Example 1991, (S)-(5-cyclopropyl-1,3,4-thiadiazol-2-yl)(4-(pyrazolo[1,5-a]pyridin-2-yl)-1,4,6,7-tetrahydro-5H-imidazo[4,5-c]pyridin-5-yl)methanone], the AC50 was in the range of 0.5 to 1 µM.
In the case of `O=C(c1nnc(C2CC2)s1)N1CCc2[nH]cnc2[C@@H]1c1cc2c(F)cccn2n1` [Example 1992, (R)-(5-cyclopropyl-1,3,4-thiadiazol-2-yl)(4-(4-fluoropyrazolo[1,5-a]pyridin-2-yl)-1,4,6,7-tetrahydro-5H-imidazo[4,5-c]pyridin-5-yl)methanone], the AC50 is above 5 µM.
On to `O=C(c1nnc(C2CC2)s1)N1CCc2[nH]cnc2[C@H]1c1cc2c(F)cccn2n1` [Example 1993, (S)-(5-cyclopropyl-1,3,4-thiadiazol-2-yl)(4-(4-fluoropyrazolo[1,5-a]pyridin-2-yl)-1,4,6,7-tetrahydro-5H-imidazo[4,5-c]pyridin-5-yl)methanone], for which the AC50 is below 0.5 µM.
As for `Cn1ccc(-c2nnc(C(=O)N3CCc4[nH]cnc4[C@@H]3c3cc4c(F)cccn4n3)s2)n1` [Example 1994, (R)-(4-(4-fluoropyrazolo[1,5-a]pyridin-2-yl)-1,4,6,7-tetrahydro-5H-imidazo[4,5-c]pyridin-5-yl)(5-(1-methyl-1H-pyrazol-3-yl)-1,3,4-thiadiazol-2-yl)methanone], the AC50 was above 5 µM.
For `Cn1ccc(-c2nnc(C(=O)N3CCc4[nH]cnc4[C@H]3c3cc4c(F)cccn4n3)s2)n1` [Example 1995, (S)-(4-(4-fluoropyrazolo[1,5-a]pyridin-2-yl)-1,4,6,7-tetrahydro-5H-imidazo[4,5-c]pyridin-5-yl)(5-(1-methyl-1H-pyrazol-3-yl)-1,3,4-thiadiazol-2-yl)methanone], the AC50 is below 0.5 µM.
Turning to `Cc1cccn2nc([C@@H]3c4nc[nH]c4CCN3C(=O)c3nnc(C4CC4)s3)cc12` [Example 1997, (S)-(5-cyclopropyl-1,3,4-thiadiazol-2-yl)(4-(4-methylpyrazolo[1,5-a]pyridin-2-yl)-1,4,6,7-tetrahydro-5H-imidazo[4,5-c]pyridin-5-yl)methanone], the AC50 fell in the range of 0.5 to 1 µM.
In the case of `Cc1cccn2nc([C@@H]3c4nc[nH]c4CCN3C(=O)c3nnc(-c4ccn(C)n4)s3)cc12` [Example 1998, (S)-(5-(1-methyl-1H-pyrazol-3-yl)-1,3,4-thiadiazol-2-yl)(4-(4-methylpyrazolo[1,5-a]pyridin-2-yl)-1,4,6,7-tetrahydro-5H-imidazo[4,5-c]pyridin-5-yl)methanone], the AC50 was below 0.5 µM.
`Cc1cccn2nc([C@H]3c4nc[nH]c4CCN3C(=O)c3nnc(-c4ccn(C)n4)s3)cc12` [Example 1999, (R)-(5-(1-methyl-1H-pyrazol-3-yl)-1,3,4-thiadiazol-2-yl)(4-(4-methylpyrazolo[1,5-a]pyridin-2-yl)-1,4,6,7-tetrahydro-5H-imidazo[4,5-c]pyridin-5-yl)methanone]: the AC50 was above 5 µM.
On to `O=C(c1nc2ccccc2s1)N1CCc2[nH]cnc2[C@H]1c1cc2ccccn2n1` [Example 2000, (S)-benzo[d]thiazol-2-yl(4-(pyrazolo[1,5-a]pyridin-2-yl)-1,4,6,7-tetrahydro-5H-imidazo[4,5-c]pyridin-5-yl)methanone], for which the AC50 fell in the range of 1 to 5 µM.
Turning to `O=C(c1nc2ccccc2s1)N1CCc2[nH]cnc2[C@@H]1c1cc2ccccn2n1` [Example 2001, (R)-benzo[d]thiazol-2-yl(4-(pyrazolo[1,5-a]pyridin-2-yl)-1,4,6,7-tetrahydro-5H-imidazo[4,5-c]pyridin-5-yl)methanone], the AC50 was above 5 µM.
With `O=C(c1nc2ccccc2s1)N1CCc2[nH]cnc2[C@H]1c1cc2c(F)cccn2n1` [Example 2002, (S)-benzo[d]thiazol-2-yl(4-(4-fluoropyrazolo[1,5-a]pyridin-2-yl)-1,4,6,7-tetrahydro-5H-imidazo[4,5-c]pyridin-5-yl)methanone], the AC50 was in the range of 0.5 to 1 µM.
Take `O=C(c1nc2ccccc2s1)N1CCc2[nH]cnc2[C@@H]1c1cc2c(F)cccn2n1` [Example 2003, (R)-benzo[d]thiazol-2-yl(4-(4-fluoropyrazolo[1,5-a]pyridin-2-yl)-1,4,6,7-tetrahydro-5H-imidazo[4,5-c]pyridin-5-yl)methanone]: the AC50 was above 5 µM.
With `Cn1nccc1-c1nnc(C(=O)N2CCc3[nH]cnc3[C@H]2c2cc3ccccn3n2)o1` [Example 2004, (S)-(5-(1-methyl-1H-pyrazol-5-yl)-1,3,4-oxadiazol-2-yl)(4-(pyrazolo[1,5-a]pyridin-2-yl)-1,4,6,7-tetrahydro-5H-imidazo[4,5-c]pyridin-5-yl)methanone], the AC50 is 0.5 to 1 µM.
On to `Cn1nccc1-c1nnc(C(=O)N2CCc3[nH]cnc3[C@@H]2c2cc3ccccn3n2)o1` [Example 2005, (R)-(5-(1-methyl-1H-pyrazol-5-yl)-1,3,4-oxadiazol-2-yl)(4-(pyrazolo[1,5-a]pyridin-2-yl)-1,4,6,7-tetrahydro-5H-imidazo[4,5-c]pyridin-5-yl)methanone], for which the AC50 is above 5 µM.
`Cc1cc(-c2nnc(C(=O)N3CCc4[nH]cnc4[C@H]3c3cc4c(C(C)C)cccn4n3)o2)nn1C` [Example 2007, (S)-(5-(1,5-dimethyl-1H-pyrazol-3-yl)-1,3,4-oxadiazol-2-yl)(4-(4-isopropylpyrazolo[1,5-a]pyridin-2-yl)-1,4,6,7-tetrahydro-5H-imidazo[4,5-c]pyridin-5-yl)methanone]: the AC50 was below 0.5 µM.
For `Fc1ccc(-c2nnc(N3CCc4[nH]cnc4[C@H]3c3cc4c(Cl)cccn4n3)o2)cc1` [Example 2009, (S)-2-(4-(4-chloropyrazolo[1,5-a]pyridin-2-yl)-1,4,6,7-tetrahydro-5H-imidazo[4,5-c]pyridin-5-yl)-5-(4-fluorophenyl)-1,3,4-oxadiazole], the AC50 is below 0.5 µM.
The figure for `Cc1cccc2cc([C@@H]3c4nc[nH]c4CCN3c3nnc(-c4ccc(F)cc4)o3)nn12` [Example 2010, (S)-2-(4-fluorophenyl)-5-(4-(7-methylpyrazolo[1,5-a]pyridin-2-yl)-1,4,6,7-tetrahydro-5H-imidazo[4,5-c]pyridin-5-yl)-1,3,4-oxadiazole] is below 0.5 µM.
